#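 Interpolation was linear, between the two tested concentrations surrounding the appropriate level; five concentrations were tested over 48 hours in 96-well plates. At the GI50, growth is halved. Definition used: TGI = concentration required for complete inhibition of growth.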
# Legend:
# Assay in all cases: inhibition of tumour cell growth, NCI panel, 48 h
# UACC-62 melanoma = system: UACC-62 melanoma
# SNB-19 CNS = system: SNB-19 CNS
# OVCAR-8 ovarian = system: OVCAR-8 ovarian
# SK-MEL-28 melanoma = system: SK-MEL-28 melanoma
# 786-0 renal = system: 786-0 renal
# MOLT-4 leukemia = system: MOLT-4 leukemia
# HS 578T breast = system: HS 578T breast
# SF-295 CNS = system: SF-295 CNS
# IGROV1 ovarian = system: IGROV1 ovarian
# K-562 leukemia = system: K-562 leukemia
# HCT-15 colon = system: HCT-15 colon
# A498 renal = system: A498 renal
# SF-539 CNS = system: SF-539 CNS
# A549 NSCLC = system: A549 NSCLC
# RXF 393 renal = system: RXF 393 renal
# SK-MEL-2 melanoma = system: SK-MEL-2 melanoma
# KM12 colon = system: KM12 colon
# CCRF-CEM leukemia = system: CCRF-CEM leukemia
# HT29 colon = system: HT29 colon
# PC-3 prostate = system: PC-3 prostate
# SF-268 CNS = system: SF-268 CNS
# LOX IMVI melanoma = system: LOX IMVI melanoma
# RPMI-8226 leukemia = system: RPMI-8226 leukemia
# HL-60(TB) leukemia = system: HL-60(TB) leukemia
# SW-620 colon = system: SW-620 colon
# HCT-116 colon = system: HCT-116 colon
# DU-145 prostate = system: DU-145 prostate
# ACHN renal = system: ACHN renal
# HOP-62 NSCLC = system: HOP-62 NSCLC
# NCI/ADR-RES ovarian = system: NCI/ADR-RES ovarian
# HOP-92 NSCLC = system: HOP-92 NSCLC
# M14 melanoma = system: M14 melanoma
# COLO 205 colon = system: COLO 205 colon
# OVCAR-5 ovarian = system: OVCAR-5 ovarian
# UACC-257 melanoma = system: UACC-257 melanoma
# U251 CNS = system: U251 CNS
# TK-10 renal = system: TK-10 renal
# SN12C renal = system: SN12C renal
# NCI-H23 lung = system: NCI-H23 lung
# CAKI-1 renal = system: CAKI-1 renal
# SNB-75 CNS = system: SNB-75 CNS
# SK-OV-3 ovarian = system: SK-OV-3 ovarian
# MDA-MB-231 breast = system: MDA-MB-231 breast
# EKVX NSCLC = system: EKVX NSCLC
# BT-549 breast = system: BT-549 breast
# UO-31 renal = system: UO-31 renal
# OVCAR-4 ovarian = system: OVCAR-4 ovarian
# NCI-H460 lung = system: NCI-H460 lung
# SK-MEL-5 melanoma = system: SK-MEL-5 melanoma
# HCC-2998 colon = system: HCC-2998 colon
# SR leukemia = system: SR leukemia
structure (smiles),measurement,setting,value
N#Cc1ccc2c(c1)C(=O)c1c-2n(CCCN)c(=O)c2cc([N+](=O)[O-])ccc12,GI50,UACC-62 melanoma,109 nM
same,TGI,UACC-62 melanoma,1390 nM
same,GI50,SNB-19 CNS,146 nM
same,TGI,SNB-19 CNS,1540 nM
same,GI50,OVCAR-8 ovarian,290 nM
same,TGI,OVCAR-8 ovarian,3620 nM
same,GI50,SK-MEL-28 melanoma,975 nM
same,TGI,SK-MEL-28 melanoma,2590 nM
same,GI50,786-0 renal,610 nM
same,TGI,786-0 renal,2160 nM
same,GI50,MOLT-4 leukemia,49.2 nM
same,GI50,HS 578T breast,1410 nM
same,TGI,HS 578T breast,3410 nM
same,GI50,SF-295 CNS,38.2 nM
same,TGI,SF-295 CNS,1490 nM
same,GI50,IGROV1 ovarian,71.2 nM
same,TGI,IGROV1 ovarian,1240 nM
same,GI50,K-562 leukemia,185 nM
same,TGI,K-562 leukemia,3970 nM
same,GI50,HCT-15 colon,411 nM
same,TGI,HCT-15 colon,1830 nM
same,GI50,A498 renal,1090 nM
same,TGI,A498 renal,2440 nM
same,GI50,SF-539 CNS,219 nM
same,TGI,SF-539 CNS,1310 nM
same,GI50,A549 NSCLC,223 nM
same,TGI,A549 NSCLC,2180 nM
same,GI50,RXF 393 renal,906 nM
same,TGI,RXF 393 renal,2220 nM
same,GI50,SK-MEL-2 melanoma,53.4 nM
same,TGI,SK-MEL-2 melanoma,1290 nM
same,GI50,KM12 colon,1200 nM
same,TGI,KM12 colon,3890 nM
same,GI50,CCRF-CEM leukemia,38 nM
same,TGI,CCRF-CEM leukemia,442 nM
same,GI50,HT29 colon,71.8 nM
same,TGI,HT29 colon,562 nM
same,GI50,PC-3 prostate,317 nM
same,TGI,PC-3 prostate,1950 nM
same,GI50,SF-268 CNS,84.6 nM
same,TGI,SF-268 CNS,1510 nM
same,GI50,LOX IMVI melanoma,69.6 nM
same,TGI,LOX IMVI melanoma,1080 nM
same,GI50,RPMI-8226 leukemia,99 nM
same,TGI,RPMI-8226 leukemia,815 nM
same,GI50,HL-60(TB) leukemia,1370 nM
same,TGI,HL-60(TB) leukemia,3560 nM
same,GI50,SW-620 colon,29.1 nM
same,TGI,SW-620 colon,568 nM
same,GI50,HCT-116 colon,199 nM
same,TGI,HCT-116 colon,1590 nM
same,GI50,DU-145 prostate,110 nM
same,TGI,DU-145 prostate,1410 nM
same,GI50,ACHN renal,69.9 nM
same,TGI,ACHN renal,1180 nM
same,GI50,HOP-62 NSCLC,259 nM
same,TGI,HOP-62 NSCLC,1790 nM
same,GI50,NCI/ADR-RES ovarian,359 nM
same,TGI,NCI/ADR-RES ovarian,3190 nM
same,GI50,HOP-92 NSCLC,1080 nM
same,TGI,HOP-92 NSCLC,2460 nM
same,GI50,M14 melanoma,467 nM
same,TGI,M14 melanoma,2080 nM
same,GI50,COLO 205 colon,518 nM
same,TGI,COLO 205 colon,2090 nM
same,GI50,OVCAR-5 ovarian,705 nM
same,TGI,OVCAR-5 ovarian,1860 nM
same,GI50,UACC-257 melanoma,637 nM
same,TGI,UACC-257 melanoma,2430 nM
same,GI50,U251 CNS,71.8 nM
same,TGI,U251 CNS,497 nM
same,GI50,TK-10 renal,1740 nM
same,TGI,TK-10 renal,3720 nM
same,GI50,SN12C renal,261 nM
same,TGI,SN12C renal,1820 nM
same,GI50,NCI-H23 lung,353 nM
same,TGI,NCI-H23 lung,2390 nM
same,GI50,CAKI-1 renal,28.5 nM
same,TGI,CAKI-1 renal,1540 nM
same,GI50,SNB-75 CNS,288 nM
same,TGI,SNB-75 CNS,1240 nM
same,GI50,SK-OV-3 ovarian,314 nM
same,TGI,SK-OV-3 ovarian,1920 nM
same,GI50,MDA-MB-231 breast,1500 nM
same,TGI,MDA-MB-231 breast,3040 nM
same,GI50,EKVX NSCLC,537 nM
same,TGI,EKVX NSCLC,1930 nM
same,GI50,BT-549 breast,847 nM
same,TGI,BT-549 breast,2290 nM
same,GI50,UO-31 renal,60.5 nM
same,TGI,UO-31 renal,1440 nM
same,GI50,OVCAR-4 ovarian,91.2 nM
same,TGI,OVCAR-4 ovarian,257 nM
same,GI50,NCI-H460 lung,46.2 nM
same,TGI,NCI-H460 lung,1140 nM
same,GI50,SK-MEL-5 melanoma,248 nM
same,TGI,SK-MEL-5 melanoma,1350 nM
same,GI50,HCC-2998 colon,101 nM
same,TGI,HCC-2998 colon,447 nM
same,GI50,SR leukemia,18.4 nM
same,TGI,SR leukemia,1260 nM

# Source: PubChem BioAssay (NCI)
